No end group written: not given here.
Legend:
[1] = tested on: E. coli ATCC 25922; test: Minimum inhibitory concentration (MIC), broth dilution; assay type: cell-based, Escherichia coli; conditions: E. coli ATCC 25922; two-fold dilution in MH II broth, 5 × 10^5 CFU/mL, 18–24 h, 37 °C, OD600; triplicate, highest number reported; detection limit <0.5 and >128 µM
Method: (§1) The panel of bacterial reference strains used in this work for assessment of synthetic peptide activity originated from the American Type Culture Collection (ATCC) and was obtained from the Diagnostic section at the Department of Microbiology, Oslo University Hospital. The strains used were as follows: E. coli ATCC 25922, K. pneumoniae ATCC 13883, A. baumannii ATCC 17978, S. aureus ATCC 29213, and E. faecalis ATCC 29212.
(§2) Bacterial strains were plated on cation-adjusted Mueller-Hinton (MH II) agar plates and incubated at 37 °C overnight. The day after single colonies were picked and resuspended in sterile-filtered saline (0.9%). The OD of each bacterial suspension was adjusted to McFarland standard 0.5 using a spectrophotometer (UV-1800, Shimadzu), and the suspension further diluted 1:100 in MH II broth, corresponding to 10^6 colony forming units (CFU) per mL. The inoculum suspension was used for MIC, MBC, time-kill and protease stability assessments as described below. To ensure correct inoculum sizes, 10 µL of the bacterial suspensions were diluted 2000-fold in sterile-filtered saline (0.9%) and 100 µL plated onto MH II agar plates. After overnight incubation at 37 °C, colonies were counted. If found to be outside the acceptable number (20–80 colonies per plate corresponding to ∼10^6 CFU/mL), results from further analyses were discarded.
(§3) The peptides were serially diluted (two-fold) directly in 96-well plates (Greiner, MICROPLATE, 96 WELL, PP, U-BOTTOM, NATURAL, 650261) containing MH II broth, corresponding to concentrations in the range 256–0.5 µM. An equal volume of bacterial suspension was added to each well, resulting in a final inoculum of 5 × 10^5 CFU/mL and final peptide concentrations of 128–0.25 µM. The 96-well plates were incubated for 18–24 h at 37 °C, after which the OD of each well was measured at 600 nm in a plate reader (Victor Nivo, Perkin-Elmer). The minimum inhibitory concentration (MIC) was estimated as the lowest concentration of peptide that produced OD600 measurements similar to the control wells containing no bacteria. The experiments were performed in triplicate. Two-fold variations in MIC values were often observed between replicates.

[2] = tested on: P. aeruginosa; test: as above; assay type: cell-based; conditions: MH II broth, 5 × 10^5 CFU/mL, 18–24 h, 37 °C, OD600; triplicate, highest number reported; detection limit <0.5 and >128 µM
[3] = tested on: A. baumannii ATCC 17978; test: as above; assay type: cell-based; conditions: MH II broth, 5 × 10^5 CFU/mL, 18–24 h, 37 °C, OD600, triplicate, highest number reported, detection limit <0.5 and >128 µM
Method: as §1, §2, §3

[4] = tested on: E. faecalis ATCC 29212; test: as above; assay type: cell-based; conditions: E. faecalis ATCC 29212; MH II broth, 5 × 10^5 CFU/mL, 18–24 h, 37 °C, OD600; triplicate, highest number reported; detection limit <0.5 and >128 µM
Method: as §1, §2, §3

[5] = tested on: K. pneumoniae ATCC 13883; test: as above; assay type: cell-based; conditions: K. pneumoniae ATCC 13883; MH II broth, 5 × 10^5 CFU/mL, 18–24 h, 37 °C, OD600; triplicate, highest number reported; detection limit <0.5 and >128 µM
Method: as §1, §2, §3

[6] = tested on: S. aureus ATCC 29213; test: as above; assay type: cell-based; conditions: S. aureus ATCC 29213; MH II broth, 5 × 10^5 CFU/mL, 18–24 h, 37 °C, OD600; triplicate, highest number reported; detection limit <0.5 and >128 µM
Method: as §1, §2, §3

[7] = tested on: E. coli ATCC 25922; test: Minimum bactericidal concentration (MBC); assay type: cell-based, Escherichia coli; conditions: 5 µL from MIC wells plated on MH II agar, 37 °C overnight, no visible colonies, triplicate, highest number reported, detection limit <0.5 and >128 µM
Method: as §1, §2
(§4) In order to assess the minimum bactericidal concentration (MBC) of peptides, 5 µL from each well of the 96-well plate used for MIC analysis was plated onto MH II agar and incubated at 37 °C overnight. […] The experiments were performed in triplicate. Two-fold variations in MIC values were often observed between replicates.

[8] = tested on: P. aeruginosa; test: Minimum bactericidal concentration (MBC); assay type: cell-based; conditions: 5 µL from MIC wells plated on MH II agar, 37 °C overnight, no visible colonies; triplicate, highest number reported
[9] = tested on: A. baumannii ATCC 17978; test: Minimum bactericidal concentration (MBC); assay type: cell-based; conditions: 5 µL from MIC wells plated on MH II agar, 37 °C overnight, no visible colonies, triplicate, highest number reported
Method: as §1, §2, §4

[10] = tested on: E. faecalis ATCC 29212; test: Minimum bactericidal concentration (MBC); assay type: cell-based; conditions: 5 µL from MIC wells plated on MH II agar, 37 °C overnight, no visible colonies, triplicate, highest number reported
Method: as §1, §2, §4

[11] = tested on: K. pneumoniae ATCC 13883; test: Minimum bactericidal concentration (MBC); assay type: cell-based; conditions: 5 µL from MIC wells plated on MH II agar, 37 °C overnight, no visible colonies, triplicate, highest number reported
Method: as §1, §2, §4

[12] = tested on: S. aureus ATCC 29213; test: Minimum bactericidal concentration (MBC); assay type: cell-based; conditions: 5 µL from MIC wells plated on MH II agar, 37 °C overnight, no visible colonies, triplicate, highest number reported
Method: as §1, §2, §4

Row | Substance | MIC, E. coli [1] [µM] | MIC, P. aeruginosa [2] [µM] | MIC, A. baumannii [3] [µM] | MIC, E. faecalis [4] [µM] | MIC, K. pneumoniae [5] [µM] | MIC, S. aureus [6] [µM] | MBC, E. coli [7] [µM] | MBC, P. aeruginosa [8] [µM] | MBC, A. baumannii [9] [µM] | MBC, E. faecalis [10] [µM] | MBC, K. pneumoniae [11] [µM] | MBC, S. aureus [12] [µM]
1 | KKKKFVLKLILKLL-NH2 [2e-N12] | > 128 | > 128 | > 128 | > 128 | > 128 | > 128 | > 128 | > 128 | > 128 | > 128 | > 128 | > 128
2 | KKKKKKFVLKLILKLL-NH2 [2g-N12] | 128 | 128 | 128 | 64 | 64 | 128 | 128 | 128 | 128 | 128 | 128 | 128
3 | KKKKIAVLQLILLFL-NH2 [2b-N12] | > 128 | > 128 | > 128 | > 128 | > 128 | > 128 | > 128 | > 128 | > 128 | > 128 | > 128 | > 128
4 | VRRRRRAVLQLILRFL-NH2 [3a-N10] | 32 | 64 | 16 | 16 | 32 | 32 | 32 | 64 | 16 | 16 | 32 | 32
5 | KKKKAVLQLILLFL-NH2 [2a-N12] | > 128 | > 128 | > 128 | > 128 | > 128 | > 128 | > 128 | > 128 | > 128 | > 128 | > 128 | > 128

From paper PMC12022103 (Scientific Reports, 2025)
